The experiment deals with T1, CaMKIIδ (Homo sapiens, UniProt Q13557).
T1 construct: gene CAMK2D; recombinant CaMKIIδ (Invitrogen)
The experiment is described as follows: in vitro kinase assay with autocamtide-2 peptide, ADP quantification. The class given is biochemical.

T1 sequence (Q13557 2-499): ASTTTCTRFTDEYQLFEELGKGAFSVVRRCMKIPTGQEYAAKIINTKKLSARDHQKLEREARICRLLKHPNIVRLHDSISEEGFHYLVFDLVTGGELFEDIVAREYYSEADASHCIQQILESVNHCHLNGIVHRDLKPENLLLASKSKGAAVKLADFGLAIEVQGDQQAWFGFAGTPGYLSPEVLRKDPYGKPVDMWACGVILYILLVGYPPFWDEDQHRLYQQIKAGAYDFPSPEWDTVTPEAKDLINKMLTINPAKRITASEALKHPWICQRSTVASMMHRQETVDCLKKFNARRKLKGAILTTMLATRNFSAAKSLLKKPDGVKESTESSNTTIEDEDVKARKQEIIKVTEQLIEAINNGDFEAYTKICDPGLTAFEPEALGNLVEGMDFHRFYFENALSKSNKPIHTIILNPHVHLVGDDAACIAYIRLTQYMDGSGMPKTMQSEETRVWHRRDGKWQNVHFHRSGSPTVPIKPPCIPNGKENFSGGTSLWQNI

Consider `COc1ccc(S(=O)(=O)N(CCO)c2ccccc2CN(C)C/C=C/c2ccc(Cl)cc2)cc1` [KN93], for which half-maximal inhibition (IC50) required 6.37 µM.

Take `COc1ccc(-c2cc(=O)c3c(O)cc(O[C@@H]4O[C@H](CO)[C@@H](O)[C@H](O)[C@H]4O)cc3o2)cc1` [tilianin]: the IC50 – broadly, the point on the concentration scale where inhibition reaches its midpoint – was > 100 µM.

These data come from article PMC7568786, “Tilianin Protects against Ischemia/Reperfusion-Induced Myocardial Injury through the Inhibition of the Ca^2+/Calmodulin-Dependent Protein Kinase II-Dependent Apoptotic and Inflammatory Signaling Pathways” (BioMed Research International, 2020).
